Data: US4402975A, “Aminocarboxylic acids, amino alcohols, or the derivatives thereof, processes for production thereof, and pharmaceutical uses thereof” (Teijin Limited, priority 1980, dated 1983)
Counter-ions that a name gives are not always drawn.

Columns and labels:
serotonin ulcer = assay: Inhibitory activity on serotonin ulcer; format: in vivo, SD-strain male rats; details: 30 min before serotonin 20 mg/kg s.c., rats
Procedure: Seven week-old SD-strain male rats (body weight 200 to 220 g) were fasted for 24 hours but water was provided freely, and then used in the following experiment. Each of the test compounds suspended in 0.5% CMC was administered to the rats either orally or intraperitoneally, and 30 minutes later, serotonin (serotonin creatinine sulfate) was subcutaneously administered to the rats in a dose of 20 mg/kg. Four hours later, the animals were sacrificed. The abdomen was cut open, and the stomach was taken out from each animal. 12 ml of 1% formalin was injected into the stomach to inflate it, and the stomach was further dipped for about 10 minutes in 1% formalin for fixation. Then, the stomach was cut open on the side of the lesser curvature, and spread on a glass plate. The area of ulcers generated in the glandular stomach was measured by using a solid microscope. The sum of the area of ulcer for each animal was used as the ulcer index. The ulcer inhibiting ratio of the test compound was calculated in accordance with the following equation. [formula] The control group was given 0.5% CMC and serotonin alone.

plasmin = molecular target: T1, plasmin (Homo sapiens, UniProt P00747); assay: Antiplasmin activity (clot lysis time, fibrinogen/urokinase/thrombin); format: biochemical; details: first series, control 391.7 ± 16.1
T1 construct: fibrin clot lysis, native
T1 sequence (P00747 97-810): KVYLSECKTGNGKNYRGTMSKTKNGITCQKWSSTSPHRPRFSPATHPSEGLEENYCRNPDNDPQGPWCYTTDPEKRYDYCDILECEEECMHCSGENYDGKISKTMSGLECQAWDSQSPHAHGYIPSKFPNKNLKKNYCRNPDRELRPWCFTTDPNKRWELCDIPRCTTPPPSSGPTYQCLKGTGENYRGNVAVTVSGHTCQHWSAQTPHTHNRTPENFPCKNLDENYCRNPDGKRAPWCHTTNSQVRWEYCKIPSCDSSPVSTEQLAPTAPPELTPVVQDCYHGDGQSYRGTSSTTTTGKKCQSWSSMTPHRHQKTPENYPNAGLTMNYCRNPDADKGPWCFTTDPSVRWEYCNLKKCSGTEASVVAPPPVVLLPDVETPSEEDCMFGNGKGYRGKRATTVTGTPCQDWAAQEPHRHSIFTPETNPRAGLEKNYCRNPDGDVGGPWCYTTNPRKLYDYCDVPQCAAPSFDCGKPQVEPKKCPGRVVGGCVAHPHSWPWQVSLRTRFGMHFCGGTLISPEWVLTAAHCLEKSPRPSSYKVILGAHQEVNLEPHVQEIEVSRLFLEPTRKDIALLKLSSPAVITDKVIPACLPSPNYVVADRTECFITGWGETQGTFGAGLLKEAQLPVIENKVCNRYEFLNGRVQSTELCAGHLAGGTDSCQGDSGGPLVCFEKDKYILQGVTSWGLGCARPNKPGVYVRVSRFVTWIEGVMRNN
Procedure: Human fibrinogen was dissolved in a phosphate-buffered physiological saline (PBS) at a pH of 7.4 to prepare a 0.2% solution. Urokinase and thrombin were dissolved similarly in PBS to prepare a solution containing 120 units of urokinase and 50 units of thrombin per ml. […] Then, 0.1 ml of the urokinase-thrombin mixed solution was added, and a microchronometer was started. One minute after the starting of the microchronometer, a glass ball having a diameter of 8 mm was put on the coagulated surface, and the incubation was continued. The time which elapsed from the dissolution of the coagulated mass until the glass ball dropped onto the bottom of the test tube was measured. As a control, PBS alone was added.

indomethacin ulcer = assay: Inhibitory activity on indomethacin ulcer; format: in vivo, SD-strain male rats; details: 200 mg/kg oral, 30 min before indomethacin 20 mg/kg oral, rats
Procedure: Seven week-old SD-strain male rats (body weight 200 to 220 g) were fasted for 24 hours but water was provided freely, and then used in the following experiment.
Each of the test compounds suspended in 0.5% CMC was orally administered to the rats, and 30 minutes later, indomethacin was orally administered in a dose of 20 mg/kg. Six hours later, the animals were sacrificed. The abdomen was cut open, and the stomach was removed. 1% Evan's blue was injected in an amount of 0.5 ml/rat into the rats through the tail vein under ether anesthesia 10 minutes before sacrificing.
12 ml of a 1% formalin was injected into the stomach and the stomach was further dipped in 1% formalin for about 10 minutes for the fixation. The stomach was cut open on the side of the greater curvature, and spread on a glass plate. The lengths of ulcers generated in the glandular stomach were measured by using a solid microscope. The sum of the lengths of the ulcers for each animal was used as the ulcer index. The ulcer inhibiting ratio of the test compound was calculated in accordance with the following equation. [formula]
The control group was given 0.5% CMC and indomethacin alone.

Shay ulcer = assay: Inhibitory activity on Shay ulcer (pylorus ligation); format: in vivo, SD-strain male rats; details: 300 mg/kg i.p.
Procedure: Seven week-old SD-strain male rats (body weight 200 to 220 g) were fasted for 24 hours but water was provided freely, and then used in the experiment.
The rats were anesthetized with ether. The abdomen was cut open along the median line to expose the pylorus. Then, the pylorus was ligated. After the ligation, each of the test compounds, dissolved in physiological saline, was administered intraperitoneally to the rats. The abdomen was sutured. After confirming that the animals recovered from ether anesthesia, they were kept in a wire cage while being deprived of food and water. Seventeen hours later, the animals were killed by using ether. The abdomen was again cut open, and the stomach was removed. The stomach was cut open, and the area of ulcers generated in the fundus was measured by using a solid microscope, and scored as tabulated below to obtain ulcer indices. […]
(§1) The control group was given physiological saline alone.
For the measurement of the Shay ulcer inhibiting activity, reference may be made to H. Shay, S. A. Komoroe, S. S. Fels, M. Meraze, M. Gruestein, and H. Siplet: Gastroent., 5, 43 (1945).

[1] = tested on: blood flow in the gastric mucosa; assay: Increasing activity on the blood flow in the dog gastric mucosa; format: in vivo, Male Beagle dogs; details: anesthetized dogs, cross thermocouple method
Procedure: Male Beagle dogs (10 to 15 kg) were anesthetized by intravenously administering sodium pentobarbital in a dose of 35 mg/kg, and used in the following experiment.
The blood flow in the gastric mucosa was measured by a cross thermocouple method. The abdomen was cut open along the median line to expose the stomach. A wire-type cross thermocouple element was inserted behind the mucosa on the glandular stomach. The blood flow measured by the cross thermocouple element was recorded continuously in a recorder. For the method of measuring the blood flow, reference may be made to a Japanese-language publication "Blood Flow Measurement", page 105, 1974 Igakushoin, edited by Okinaka, Hori and Honda.

gastric secretion = assay: Inhibitory activity on gastric secretion (pylorus ligation); format: in vivo, male rats; details: for Amount of gastric juice: 4 hours after pylorus ligation, control 6.8 ± 0.6, in ml (unit assumed); for Acidity: control 109.1 ± 1.7
Procedure: Seven week-old DS-strain male rats (body weight 200 to 220 g) were fasted for 24 hours but water was provided freely, and then used in the following experiment.
The rats were anesthetized with ether. The abdomen was cut open along the median line to expose the pylorus. Then, the pylorus was ligated. After ligation, each of the test compounds dissolved in physiological saline was intraperitoneally administered to the animals. The abdomen was sutured, and after confirming that the animals recovered from ether anesthesia, they were kept in a wire cage while being deprived of food and water. Four hours later, the animals were killed by using ether. The abdomen was again cut open, and the stomach was removed. The gastric juice was collected, and its volume and acidity was measured. The acidity of the gastric juice was determined by titrating with 0.05 N sodium hydroxide using phenolphthalein as an indicator, and calculating the amount of sodium hydroxide required to neutralize the gastric juice which is estimated as the acidity of the gastric juice.
as §1
For the method of studying the inhibitory activity on the gastiic secretion, reference may be made to H. Shay, S. A. Komoroe, S. S. Fels, M. Meraze, M. Gruestein and H. Siplet: Gastroent., 5, 43 (1945), and M. L. Anson: J. Gen, Physiol., 21, 79 (1938).

NC[C@H]1CC[C@H](C(=O)c2ccc(CCC(=O)O)cc2)CC1 [3-[p-trans-4-aminomethylcyclohexylcarbonyl)phenyl]-propionic acid hydrochloride]
Ulcer inhibiting ratio (serotonin ulcer; 30 mg/kg oral): 34.0% | Ulcer inhibiting ratio (serotonin ulcer; 100 mg/kg oral): 76.7% | Clot lysis time (plasmin; 10^-3 M): 980.0 s | Clot lysis time (plasmin; 10^-4 M): 561.2 s | Clot lysis time (plasmin; 10^-5 M): 413.9 s | Ulcer inhibiting ratio (indomethacin ulcer): 62.2% | Inhibition ratio (Shay ulcer; Shay ulcer, rats): 43.5% | Ratio of perforation (Shay ulcer; Shay ulcer, rats, control 80): 20% | Ulcer index (Shay ulcer; score 0-5 by ulcer area, 17 hours after pylorus ligation, control 4.6 ± 0.4): 2.6 ± 0.8 | Increase in the gastric mucosal blood flow ([1]; 2 mg/kg i.v.): weak increase | Increase in the gastric mucosal blood flow ([1]; 5 mg/kg i.v.): remarkable | Inhibition ratio (acidity) (gastric secretion; 50 mg/kg i.p.): 17.5% | Inhibition ratio (amount of gastric juice) (gastric secretion; 50 mg/kg i.p.): 41.7% | Amount of gastric juice (gastric secretion; 50 mg/kg i.p.): 4.8 ± 0.8 | Acidity (gastric secretion; 50 mg/kg i.p.): 90.0 ± 4.5 μeq./ml | Inhibition ratio (acidity) (gastric secretion; 100 mg/kg i.p.): 31.8% | Inhibition ratio (amount of gastric juice) (gastric secretion; 100 mg/kg i.p.): 54.4% | Amount of gastric juice (gastric secretion; 100 mg/kg i.p.): 3.1 ± 0.7 | Acidity (gastric secretion; 100 mg/kg i.p.): 74.1 ± 6.1 μeq./ml | Inhibition ratio (acidity) (gastric secretion; 200 mg/kg i.p.): 70.1% | Inhibition ratio (amount of gastric juice) (gastric secretion; 200 mg/kg i.p.): 89.4% | Amount of gastric juice (gastric secretion; 200 mg/kg i.p.): 0.7 ± 0.1 | Acidity (gastric secretion; 200 mg/kg i.p.): 32.6 ± 2.6 μeq./ml
